Experimental data reported in patent US9540418B2, “Polypeptide specifically binding to rare earth nanoparticles and use thereof” (University of Science and Technology of China, priority 2012, dated 2017).

Tests used:
[1] = system: HeLa cells; assay: Cytotoxicity of UCN or UCP with or without RE-1 (MTT, PI staining); format: cell-based; details: 10-1000 μg/mL, 24 hr, MTT and PI staining
Method: MTT cell vitality assay is performed as follows: The cells to which samples have been added are cultured for 24 hr, and then 0.5 mg/mL MTT solution is added and cultured for 4 hr. The MTT solution in the well is discharged, and then 200 μL DMSO is added, followed by gently shaking the plate on a shaking table for 10 min. Detection is performed using microplate reader (ELX800, purchased from BIO-TEK) at a wavelength of 570 nm.
PI staining assay is performed as follows: The cells to which samples have been added are cultured for 24 hr, and then to the culture Hoechst 33342 (10 mM, purchased from Sigma, USA, Catalog #: B2261) and PI (Propidium Iodide) (10 mM, purchased from Beyotime Biotechnology, Catalog #: ST511) are added for 10 min of staining. Then, the cells are detected and photographed under a fluorescence microscope (Olympus IX71, purchased from Olympus). The number of the cells counted by this assay was 500.
HeLa cells were inoculated into a 96-well cell culturing plate at a density of about 1-2×10^4 cells/well, and cultured overnight for further use. At first, the medium was replaced with fresh DMEM medium, and then 10 μg/mL, 100 μg/mL, 250 μg/mL, 500 μg/mL, or 1000 μg/mL of UCN or UCP coated, with or without RE-1, were added, respectively. After culturing for 24 hr, MTT cell viability assay and PI staining were performed to detect the mortality of the cells.

[2] = system: mice liver; assay: Autophagosome formation in mice livers by transmission electron microscope; format: in vivo, Balb/c mice; details: RE-1 with UCN, PEG with UCN, AP-1 with UCP
Method: Balb/c mice (purchased from SLAC Laboratory Animal (Shanghai, China), 6 weeks old, and weighed 20 g when used) were bred in a sterile housing, and then 300 μg (dosage: 15 mg/kg) UCN, UCN+PEG (containing 10 mg PEG), UCN+RE-1, UCP, UCP+RE-1, or UCP+AP-1 was injected through tail vein. An equal volume of normal saline was injected as a control. After 24 hr, the livers of the mice were removed and subjected to western blotting assay.
The mice livers obtained as described in Example 21 were in situ fixed with 2.5% glutaral-dimethyl arsine buffer (pH 7.4) at 4° C. for 1 hr, then fixed with 2% osmium tetroxide at room temperature for 1 hr, and then dehydrated with ethanol gradients. Then, the cell samples were embedded into epoxy resin (EPON812). The embedded cell samples were cut into ultrathin slices, which were stained with uranyl acetate and lead citrate, and observed and imaged under a transmission electron microscope (JEOL-1230, JEOL, Japan).

[3] = system: HeLa cells; assay: Adherence of UCN coated with RE-1 or RE-1-RGD to HeLa cells; format: cell-based; details: 37° C., 2 hr, versus uncoated
Method: HeLa cells were cultured on a coverslip (22 mm×22 mm), which was then placed into a 6-well plate with the cells facing upward or downward, and the coverslip was supported by a sterilized glass cube (2 mm×2 mm×2 mm). Then, 4 mL of DMEM medium containing the rare-earth upconversion nanophosphors coated with RE-1 or RE-1-RGD or without any coating was slowly poured into the 6-well plate, such that the cells were fully immersed in the medium, and the coverslip was just located at the middle of the height of the liquid. The cells were placed into a cell incubator at 37° C. for 2 hr, and then washed with PBS 3 times. The UCNs adhered to the surfaces of the cells were observed under a fluorescence microscope (Olympus IX71, Olympus, Japan) equipped with a 980-nm infrared laser (MDL-980 nm 1 W, Changchun New Industries Optoelectronics Tech. Co., Ltd, China).

[4] = Binding of FITC-RE-1 to UCN (time, concentration, pH, salt, temperature); details: 50 μg FITC-RE-1, 100 μg UCN
Method: 50 μg of FITC-RE-1 was incubated with 100 μg of UCN for different time periods (2 min, 10 min, 30 min, 120 min, and 720 min). Then, the amount of FITC-RE-1 fluorescent peptide binding to UCN was measured by using fluorescence spectrophotometer.
100 μg of UCN was incubated with FITC-RE-1 at various concentrations (5 μg, 10 μg, 25 μg, 50 μg, and 100 μg) for 1 hr. The excess and unbound peptides were washed off. The amount of FITC-RE-1 fluorescent peptide binding to UCN was measured by using fluorescence spectrophotometer.
(§1) 50 μg of FITC-RE-1 was incubated with 100 μg of UCN dissolved at different pH values (pH 3, 5, 7, and 10) for 1 hr. The excess and unbound peptides were washed off. The amount of FITC-RE-1 fluorescent peptide binding to UCN was measured by using fluorescence spectrophotometer.
as §1, with “salt ion concentrations (0 M, 0.15 M, 0.3 M,” for “pH values (pH 3, 5, 7,”, “0.5 M NaCl)” for “10)”
50 μg of FITC-RE-1 was incubated with 100 μg of UCN dissolved in water at different temperatures (25° C., 37° C., 55° C., and 80° C.) for 1 hr. […] The amount of FITC-RE-1 fluorescent peptide binding to UCN was measured by using fluorescence spectrophotometer.

[5] = Inhibition of the binding of REOB-1 to Nd2O3 by RE-1 short peptide at various concentrations
Method: RE-1 short peptides at various concentrations (0 μg/mL, 1 μg/mL, 10 μg/mL, 50 μg/mL, 100 μg/mL, and 500 μg/mL) were incubated with 100 μL Nd2O3 (1 mg/mL) comprising REOB-1 phages at a titer of 10^8 at 37° C. for 2 hr. The resulting precipitate was washed 10 times. The phages binding to Nd2O3 were recovered. 5000 μg/mL of AP-1 short peptide was treated according to the same procedure as described above, as a control.

[6] = Binding ability of FITC-RE-1 to various inorganic nanomaterials (fluorescence spectrophotometer)
Method: 10 μg of FITC-RE-1 polypeptide was incubated with 100 μL of various inorganic nanomaterials (1 mg/mL) at room temperature for 1 hr, and then centrifuged at 12000 rpm for 10 min. The resulting precipitate was washed 3 times. Then, a fluorescence spectrophotometer (RF-5301 PC, Shimadzu, Japan) was used to detect FITC (emission wavelength: 535 nm). The standard curve of fluorescence intensity vs. concentration for FITC-RE-1 was used as control, and thus the binding ability of the various inorganic nanomaterials to FITC-RE-1 polypeptide was determined. […] However, RE-1 hardly bound to non rare-earth materials, such as diamond, TiO2, SiO2, SiO3, and nano-silver (FIG. 4).

In the case of “ACTARSPWICG [RE-1, RE-0 with terminal amino acids A and G added]”, the “effect of coating with RE-1 on cytotoxicity of UCN, UCP” value [1] is reported as “significantly reduced cytotoxicity”, the “inhibition of autophagosome formation induced by nanophosphors (UCN, UCP) in liver” value [2] is reported as “significantly inhibited” and the “number of coated upconversion nanophosphors adhered to the surface of the cells” value [3] is reported as “greatly reduced”. For the same sequence, the “binding to UCN at 2 min” value ([4]; 2 min) was 50%, the “binding to UCN at 10 min” value ([4]; 10 min) was “almost binding saturation” and the “dependence of inhibition of REOB-1 binding to Nd2O3 on RE-1 concentration” value ([5]; 0-500 μg/mL RE-1) was “concentration-dependent”. The “inhibition of the binding of REOB-1 to Nd2O3” value ([5]; RE-1 concentration greater than 10 μg/mL, REOB-1 titer 10^8, 37° C., 2 hr) was “nearly completely inhibited”, the “binding to rare-earth metal oxides and rare-earth upconversion nanophosphors” value ([6]; 10 μg FITC-RE-1, 1 mg/mL material, 1 hr, most strongly Y2O3, CeO2, Yb2O3, Nd2O3, UCN, UCN-S, UCP) was “strongly bound” and the “binding to non rare-earth materials” value ([6]; diamond, TiO2, SiO2, SiO3, nano-silver, 10 μg FITC-RE-1, 1 hr) was “hardly bound”.
